Measurements: US6737383B1, “Herbicidal oxadiazolidines” (priority 1999, dated 2004)

How the values were obtained:
[1] = tested on: wild oat; assay: Test B pre/postemergence wild oat; assay type: in vivo, Avena fatua
Procedure, shortened: (§1)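 Herbicidal effect was estimated by eye on a ten-point control scale after plants spent twelve to sixteen days in a greenhouse following soil or foliar treatment. Foliar sprays targeted plants at one to four leaves; all doses were formulated in a non-phytotoxic solvent with surfactant.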

[2] = tested on: giant foxtail; assay: Test B pre/postemergence giant foxtail; assay type: in vivo, Setaria faberii
Procedure, shortened: as §1

[3] = tested on: bedstraw; assay: Test B pre/postemergence bedstraw; assay type: in vivo, Galium aparine
Procedure, shortened: as §1

[4] = tested on: smallflower flatsedge; assay: Test B flood test smallflower flatsedge; assay type: in vivo, Cyperus difformis
Procedure, shortened: (§2)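 Flood test on plants grown to the 2-leaf stage; treated plants kept in greenhouse twelve to sixteen days, then visually rated against controls on a 0 (no effect) to 10 (complete control) scale.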

[5] = tested on: velvetleaf; assay: Test B pre/postemergence velvetleaf; assay type: in vivo, Abutilon theophrasti
Procedure, shortened: as §1

[6] = tested on: morningglory; assay: Test B pre/postemergence morningglory; assay type: in vivo, Ipomoea hederacea
Procedure, shortened: as §1

[7] = tested on: cocklebur; assay: Test B pre/postemergence cocklebur; assay type: in vivo, Xanthium strumarium
Procedure, shortened: as §1

[8] = tested on: rice; assay: Test B flood test rice; assay type: in vivo, Oryza sativa; conditions: Rate 500 g/ha, Pre-emergence section of Table B; 0 to 10 scale (0 no effect, 10 complete control)
Procedure, shortened: as §2

[9] = tested on: surinam grass; assay: Test B pre/postemergence surinam grass; assay type: in vivo, Brachiaria decumbens
Procedure, shortened: as §1

[10] = tested on: wheat; assay: Test B pre/postemergence wheat; assay type: in vivo, Triticum aestivum
Procedure, shortened: as §1

[11] = tested on: blackgrass; assay: Test B pre/postemergence blackgrass; assay type: in vivo, Alopecurus myosuroides
Procedure, shortened: as §1

[12] = tested on: soybean; assay: Test B pre/postemergence soybean; assay type: in vivo, Glycine max
Procedure, shortened: as §1

[13] = tested on: pigweed; assay: Test B pre/postemergence pigweed; assay type: in vivo, Amaranthus retroflexus
Procedure, shortened: as §1

[14] = tested on: purple nutsedge; assay: Test B pre/postemergence purple nutsedge; assay type: in vivo, Cyperus rotundus
Procedure, shortened: as §1

[15] = tested on: crabgrass; assay: Test B pre/postemergence crabgrass; assay type: in vivo, Digitaria sanguinalis
Procedure, shortened: as §1

[16] = tested on: bamyardgrass; assay: Test B flood test barnyardgrass; assay type: in vivo, Echinochloa crus-galli
Procedure, shortened: as §2

[17] = Postemergence, Rate 62 g/ha, scale of 0 to 10, 0 is no effect, 10 is complete control
[18] = Postemergence, Rate 500 g/ha, scale of 0 to 10 where 0 is no effect and 10 is complete control
[19] = Preemergence, Rate 62 g/ha, scale 0 to 10 (0 no effect, 10 complete control)
[20] = Preemergence, Rate 125 g/ha, scale 0 to 10, 0 is no effect, 10 is complete control
[21] = Preemergence, Rate 500 g/ha, scale of 0 to 10 where 0 is no effect and 10 is complete control
[22] = Rate 250 g/ha, Postemergence, scale of 0 to 10 where 0 is no effect and 10 is complete control
[23] = Postemergence, Rate 125 g/ha, scale 0 to 10, 0 is no effect, 10 is complete control
[24] = Rate 62 g/ha, flood test species, Pre-emergence, visual evaluation after twelve to sixteen days
[25] = Rate 125 g/ha, under heading Pre-emergence, flood test species, visual evaluation after twelve to sixteen days
[26] = Rate 250 g/ha, Pre-emergence (flood test species), scale 0 to 10, 0 is no effect, 10 is complete control
[27] = Rate 500 g/ha, Pre-emergence section of Table B, 0 to 10 scale (0 no effect, 10 complete control)

CCCCCCn1c(=O)on(C(=O)N(c2ccccc2)C(C)C)c1=O [Compound 558]
Wild oats plant response rating [1, 17]: 0
Plant response rating, Wild oats [1, 18]: 0
Wild oats plant response rating [1, 19]: 0
Wild oats plant response rating [1, 20]: 0
Wild oats plant response rating (0 to 10 scale) ([1]; Preemergence, Rate 250 g/ha): 0
Wild oats plant response rating [1, 21]: 2
Plant response rating, Wild oats [1, 22]: 0
Giant foxtail plant response rating [2, 17]: 2
Giant foxtail plant response rating [2, 23]: 2
Plant response rating, Giant foxtail [2, 18]: 8
Giant foxtail plant response rating [2, 19]: 8
Giant foxtail plant response rating [2, 20]: 9
Giant foxtail plant response rating (0 to 10 scale) ([2]; Preemergence, Rate 250 g/ha): 9
Giant foxtail plant response rating [2, 21]: 10
Plant response rating, Giant foxtail [2, 22]: 5
Bedstraw plant response rating [3, 23]: 0
Bedstraw plant response rating [3, 19]: 0
Bedstraw plant response rating [3, 20]: 0
Bedstraw plant response rating (0 to 10 scale) ([3]; Preemergence, Rate 250 g/ha): 0
Bedstraw plant response rating [3, 21]: 0
Plant response rating, Bedstraw [3, 22]: 0
Plant response rating, S. Flatsedge (0 to 10 scale, 0 is no effect, 10 is complete control) [4, 24]: 0
S. Flatsedge plant response rating (0 to 10 scale, 0 is no effect, 10 is complete control) [4, 25]: 0
S. Flatsedge plant response rating [4, 26]: 0
S. Flatsedge plant response rating [4, 27]: 0
Velvetleaf plant response rating [5, 17]: 0
Plant response rating, Velvetleaf [5, 18]: 2
Velvetleaf plant response rating [5, 19]: 0
Velvetleaf plant response rating [5, 20]: 0
Velvetleaf plant response rating (0 to 10 scale) ([5]; Preemergence, Rate 250 g/ha): 0
Velvetleaf plant response rating [5, 21]: 0
Plant response rating, Velvetleaf [5, 22]: 0
Morningglory plant response rating [6, 17]: 10
Morningglory plant response rating [6, 23]: 10
Plant response rating, Morningglory [6, 18]: 10
Morningglory plant response rating [6, 19]: 0
Morningglory plant response rating [6, 20]: 0
Morningglory plant response rating (0 to 10 scale) ([6]; Preemergence, Rate 250 g/ha): 0
Morningglory plant response rating [6, 21]: 0
Plant response rating, Morningglory [6, 22]: 10
Cocklebur plant response rating [7, 17]: 0
Cocklebur plant response rating [7, 23]: 0
Plant response rating, Cocklebur [7, 18]: 0
Cocklebur plant response rating [7, 19]: 0
Cocklebur plant response rating [7, 20]: 0
Cocklebur plant response rating (0 to 10 scale) ([7]; Preemergence, Rate 250 g/ha): 0
Cocklebur plant response rating [7, 21]: 0
Plant response rating, Cocklebur [7, 22]: 0
Rice plant response rating [8]: 0
B. signalgrass plant response rating [9, 17]: 0
Plant response rating, B. signalgrass [9, 18]: 3
B. signalgrass plant response rating [9, 19]: 0
B. signalgrass plant response rating [9, 20]: 0
B. signalgrass plant response rating (0 to 10 scale, 0 is no effect, 10 is complete control) ([9]; Preemergence, Rate 250 g/ha): 3
B. signalgrass plant response rating [9, 21]: 6
Plant response rating, B. signalgrass [9, 22]: 0
Wheat plant response rating [10, 17]: 0
Plant response rating, Wheat [10, 18]: 0
Wheat plant response rating [10, 19]: 0
Wheat plant response rating [10, 20]: 0
Wheat plant response rating (0 to 10 scale) ([10]; Preemergence, Rate 250 g/ha): 0
Wheat plant response rating [10, 21]: 2
Plant response rating, Wheat [10, 22]: 0
Blackgrass plant response rating [11, 17]: 0
Blackgrass plant response rating [11, 23]: 0
Plant response rating, Blackgrass [11, 18]: 2
Blackgrass plant response rating [11, 19]: 2
Blackgrass plant response rating [11, 20]: 2
Blackgrass plant response rating (0 to 10 scale) ([11]; Preemergence, Rate 250 g/ha): 6
Blackgrass plant response rating [11, 21]: 9
Plant response rating, Blackgrass [11, 22]: 2
Soybean plant response rating [12, 17]: 3
Plant response rating, Soybean [12, 18]: 4
Soybean plant response rating [12, 19]: 0
Soybean plant response rating [12, 20]: 0
Soybean plant response rating (0 to 10 scale) ([12]; Preemergence, Rate 250 g/ha): 0
Soybean plant response rating [12, 21]: 0
Plant response rating, Soybean [12, 22]: 4
Redroot pigweed plant response rating [13, 17]: 0
Plant response rating, Redroot pigweed [13, 18]: 0
Redroot pigweed plant response rating [13, 19]: 0
Redroot pigweed plant response rating [13, 20]: 0
Redroot pigweed plant response rating (0 to 10 scale) ([13]; Preemergence, Rate 250 g/ha): 2
Redroot pigweed plant response rating [13, 21]: 2
Plant response rating, Redroot pigweed [13, 22]: 0
Nutsedge plant response rating [14, 17]: 0
Nutsedge plant response rating [14, 23]: 0
Plant response rating, Nutsedge [14, 18]: 0
Nutsedge plant response rating [14, 19]: 0
Nutsedge plant response rating [14, 20]: 0
Nutsedge plant response rating (0 to 10 scale) ([14]; Preemergence, Rate 250 g/ha): 0
Nutsedge plant response rating [14, 21]: 0
Plant response rating, Nutsedge [14, 22]: 0
Crabgrass plant response rating [15, 17]: 0
Crabgrass plant response rating [15, 23]: 0
Plant response rating, Crabgrass [15, 18]: 8
Crabgrass plant response rating [15, 19]: 8
Crabgrass plant response rating [15, 20]: 9
Crabgrass plant response rating (0 to 10 scale) ([15]; Preemergence, Rate 250 g/ha): 9
Crabgrass plant response rating [15, 21]: 9
Plant response rating, Crabgrass [15, 22]: 8
Plant response rating, Barnyardgrass (0 to 10 scale, 0 is no effect, 10 is complete control) [16, 24]: 0
Barnyardgrass plant response rating (0 to 10 scale, 0 is no effect, 10 is complete control) [16, 25]: 0
Barnyardgrass plant response rating [16, 26]: 2
Barnyardgrass plant response rating [16, 27]: 6
